Test results reported in publication PMC7407272, “Induction of Lysosome Membrane Permeabilization as a Therapeutic Strategy to Target Pancreatic Cancer Stem Cells” (Cancers, 2020).

Experiments:
[1] = tested on: mouse embryonic stem cells (mESCs); experiment: mESC viability (MTS) screen and dose response; format: cell-based; settings: Mus musculus, Embryonic stem cell, 30 h
Procedure: (§1) Mouse embryonic stem cells were cultured in Dulbecco’s Modified Eagle Medium (DMEM) containing 15% Fetal bovine serum (FBS), non-essential amino acids (NEAA), 2-mercaptoethanol, and Leukemia inhibitory factor (LIF) and passaged on gelatinized plates under standard conditions.
(§2) Murine embryonic stem cells (mESCs) were plated at 20,000 cells per well in gelatinized 96 well plates. Compounds from the 640 compound ETP library were added by a Beckman FX 96 tip to achieve a final concentration of 5 µM in each well, and each compound was tested in duplicate. Cells were treated for a total of 30 h prior to assessing cell viability using CellTiter 96® AQueous One Solution Cell Proliferation Assay (MTS) assay according to manufacturer’s instructions (G3582, Promega, Madison, WI, USA). Dose response curves were carried out on mESCs under the same conditions using indicated compounds. To test the viability of CSCs, 10,000 PDAC cells were plated in spheroid conditions and immediately treated with indicated compounds and concentrations for the duration of the sphere formation assay. For adherent non-CSCs, 20,000 cells were plated in wells of standard tissue culture-treated plates (Corning, Corning, NY, USA) and treated the following day with indicated compounds and concentrations. For re-plated spheres (Figure S1B), 7-day-old spheres were filtered using a 40 µM filter (Fisher Scientific, Hampton, NH, USA), washed once with 1× PBS, and incubated with trypsin 0.05% EDTA at 37 °C (Thermo Fisher Scientific, Waltham, MA, USA) to achieve a single cell suspension (approximately 10–30 min, depending on the PDAC culture). Trypsinized cells were counted and 20,000 cells were plated in wells of standard tissue culture-treated plates (Corning) and treated the following day with indicated compounds and concentrations.

[2] = mESC viability (MTS) screen and dose response; format: cell-based, mouse; settings: mouse, mouse embryonic stem cells (mESCs), 5 µM, MTS
Procedure: as §1, §2

[3] = tested on: PDAC4 3D spheres; experiment: Viability curves on PDAC4 3D spheres; format: cell-based, human; settings: 30 h
Excerpt: The PDAC patient-derived xenograft (PDX) Panc354 (referred to hereafter as PDAC3) was obtained from Dr. Manuel Hidalgo under a Material Transfer Agreement with the Spanish National Cancer Centre (CNIO), Madrid, Spain (Reference no. I409181220BSMH). PDAC1, PDAC2 and PDAC4 PDXs were established from primary patient resected tumors. Samples were provided by the BioBank Hospital Ramón y Cajal-IRYCIS (PT13/0010/0002), integrated in the Spanish National Biobanks Network and they were processed following standard operating procedures with the appropriate approval of the Ethical and Scientific Committees (Control no. No. Control: DE-BIOB-73 AC65, RG.BIOB-96 REV, and CI-BIOB-08-10-01 rev), with informed consent and according to Declaration of Helsinki principles. Primary patient tumors were subcutaneously implanted in immunocompromised female 6- to 8-week-old NU-Foxn1nu nude mice (Envigo, Barcelona, Spain) and subsequently passage in vivo to establish PDX PDAC1, PDAC2 and PDAC4. Primary PDX-derived in vitro cultures were established as previously detailed. […]
Pancreatic CSC spheres were generated as previously described in ultra-low attachment plates (Corning) using CSC media: serum-free DMEM/F12 medium (1:1; #21331-020; Gibco, Waltham, MA, USA), supplemented with Pen/Strep (1:100; #1500-063; Gibco, Waltham, MA, USA), Fungizone (1:250; #15290-018; Gibco), L-Glutamine (1:100; #25030-024; Gibco, Waltham, MA, USA), B-27 (1:50; #17504-044; Gibco, Waltham, MA, USA) and basic fibroblast growth factor (FGF-b) (1:5000; Gibco, Waltham, MA, USA). […] To quantify spheres of > 40 μm, 1 mL of sample volume was analyzed with a CASY® Cell Counter (Roche Applied Sciences, Mannheim, Germany). […]

[4] = tested on: PDAC1 xenografts; experiment: PDX treatment in nude mice; format: in vivo, NU-Foxn1nu nude mice
Procedure: (§3) Cells were analyzed with a 4-laser Attune NxT Acoustic Cytometer (ThermoFisher Scientific). Cells and digested tumors (as described in [41]) were resuspended in FLOW buffer (1X PBS; 3 mM EDTA (v/v); 3% FBS (v/v)), and the following fluorescently-tagged antibodies were used to label cells for 30 min at 4 °C: Mouse monoclonal anti-human CD133-PE (1:20, Cat no. 130-110-962, Miltenyi, Bergisch Gladbach, Germany), Mouse monoclonal anti-human CD133-APC (1:20, Cat no. 130-111-080, Miltenyi, Bergisch Gladbach, Germany), mouse monoclonal anti-human C-X-C chemokine receptor type 4- Phycoerythrin (CXCR4-PE) (1:20, Cat no. 130-117-354, Miltenyi, Bergisch Gladbach, Germany), or mouse monoclonal anti-human Epithelial cell adhesion molecule-fluorescein isothiocyanate (EpCAM-FITC) (1:20, Cat no. 130-111-115, Miltenyi, Bergisch Gladbach, Germany). Autofluorescent cells were excited with blue laser 488nm and selected as the intersection with the filters 530/40 and 580/30 as previously described. For lysosomes quantification, Acridine Orange (AO) (A1301, Thermo Fisher Scientific, Waltham, MA, USA) or Lysotracker Deep Red (DR) (L12492, Molecular probes, Life Technologies, Waltham, MA, USA) were used. AO fluorescence was assessed with two combinations of excitation and emission spectra: BL1 […] BL3 (Ex488/Em695/40, equal to the far-red channel (>670 nm)) Lysotracker DR fluorescence was assessed with RL1 (Ex638/Em670/14). Bafilomycin A1 (100 nM, Calbiochem, San Diego, CA, USA) was included as a positive control for lysosome disruption. For Annexin V staining, floating and attached cells were pooled and resuspended in 1× AnnexinV staining buffer containing AnnexinV-APC diluted 1:20 (Biotium, Freemont, CA, USA) and incubated for 20 min at room temperature prior to flow cytometric analysis. For all assays, DAPI was used to mark and exclude dead cells, and data were analyzed using the software FlowJo v9.3 (Tree Star Inc., Ashland, OR, USA).
(§4) Female 6- to 8-week-old NU-Foxn1nu nude mice (Envigo, Spain) were subcutaneously injected with control or pre-treated 1 × 10^4 PDAC cells in 50 µL of Matrigel^TM (Corning). Tumor growth was monitored bi-weekly for up to 10 weeks. For Siramesine experiments, mice were subcutaneously implanted with PDAC1 and PDAC3 PDXs. After 4 weeks of tumor growth, mice were randomized into treatment groups (5 mice per group). Mice were treated with Siramesine twice a week (30 mg/kg by oral gavage formulated in 0.5% methylcellulose 15 cP in 0.9% NaCl solution) for ~4 weeks. Gemcitabine (GEMZAR®, Eli Lilly, Indianapolis, IN, USA) was administered twice a week (125 mg/kg i.p.) for ~4 weeks. Tumor volumes (mm^3) were determined twice per week using a digital caliper. Mice were sacrificed at 24 days post treatment initiation and tumors were extracted and analyzed by flow cytometry as described above. For second generation tumor formation, 1000 and 100 cells of indicated treatment groups were resuspended in Matrigel ^TM and injected subcutaneously in recipient NU-Foxn1nu nude mice and tumor formation was monitored for 10 weeks. Mice were housed according to institutional guidelines and all experiments were performed in compliance with the institutional guidelines for the welfare of experimental animals approved by the Universidad Autónoma de Madrid Ethics Committee (CEI 60-1057-A068) or by the Instituto de Salud Carlos III Ethics Committee (CBA12_2014-v3) and La Comunidad de Madrid (PROEX 335/14 or PROEX 53/14) and in accordance with the guidelines for Ethical Conduct in the Care and Use of Animals as stated in The International Guiding Principles for Biomedical Research involving Animals, developed by the Council for International Organizations of Medical Sciences (CIOMS).

[5] = tested on: PDAC3 xenografts; experiment: PDX treatment in nude mice; format: in vivo, NU-Foxn1nu nude mice; settings: PDAC3 PDX; GEM 125 mg/kg i.p. biweekly, SIR 30 mg/kg oral gavage; 23 days
Procedure: as §3, §4

[6] = tested on: PDAC4 cultures; experiment: Sphere formation assay; format: cell-based, human; settings: 0.1 µg/mL GEM or Cpd 1 at 1.25 or 2.5 µM
Excerpt: (§5) Pancreatic CSC spheres were generated as previously described in ultra-low attachment plates (Corning) using CSC media: serum-free DMEM/F12 medium (1:1; #21331-020; Gibco, Waltham, MA, USA), supplemented with Pen/Strep (1:100; #1500-063; Gibco, Waltham, MA, USA), Fungizone (1:250; #15290-018; Gibco), L-Glutamine (1:100; #25030-024; Gibco, Waltham, MA, USA), B-27 (1:50; #17504-044; Gibco, Waltham, MA, USA) and basic fibroblast growth factor (FGF-b) (1:5000; Gibco, Waltham, MA, USA). All cell culture was carried out at 37 °C in a 5% CO2 humidified incubator. To quantify spheres of > 40 μm, 1 mL of sample volume was analyzed with a CASY® Cell Counter (Roche Applied Sciences, Mannheim, Germany). The CASY® Cell Counter measuring principle is based on a capillary particle counter with pulse area analysis, that permits the determination of cell count, cell concentration, cell volume (peak), and average cell diameter, specifically diameters of 40–80 μm, 80–120 μm and >120 μm.

[7] = tested on: PDAC2 cultures; experiment: Sphere formation assay; format: cell-based, human; settings: 0.1 µg/mL GEM or Cpd 1 at 1.25 or 2.5 µM
Excerpt: as §5

[8] = tested on: PDAC3 tumor cells; experiment: Second generation tumor formation (serial passage, ELDA); format: in vivo, NU-Foxn1nu nude mice
Procedure: as §4
(§6) Results are presented as means ± standard error of the mean (SEM) unless stated otherwise. An unpaired two-tailed t test was performed to determine significance. p values < 0.05 were considered statistically significant. All analyses were performed using GraphPad Prism version 6.0 (San Diego, California USA). CSC frequencies and significance were determined using the on-line extreme-limiting dilution assays (ELDA) program (http://bioinf.wehi.edu.au/software/elda/).

[9] = tested on: PDAC1 tumor cells; experiment: as above; format: in vivo, NU-Foxn1nu nude mice
Procedure: as §4, §6

[10] = tested on: sphere-derived PDAC2 cells; experiment: Tumor initiating capacity of pre-treated cells injected subcutaneously; format: in vivo, NU-Foxn1nu nude mice; settings: cells treated 3 days with 0.1 µg/mL GEM or compound at 1.25 µM, then injected subcutaneously
Procedure: as §4

[11] = tested on: PDAC2 3D spheres; experiment: Viability curves on PDAC2 3D spheres; format: cell-based, human; settings: Homo sapiens, PDAC-2, 30 h; read-out: EC50 (viability), PDAC2 spheres
Excerpt: The PDAC patient-derived xenograft (PDX) Panc354 (referred to hereafter as PDAC3) was obtained from Dr. Manuel Hidalgo under a Material Transfer Agreement with the Spanish National Cancer Centre (CNIO), Madrid, Spain (Reference no. I409181220BSMH). PDAC1, PDAC2 and PDAC4 PDXs were established from primary patient resected tumors. Samples were provided by the BioBank Hospital Ramón y Cajal-IRYCIS (PT13/0010/0002), integrated in the Spanish National Biobanks Network and they were processed following standard operating procedures with the appropriate approval of the Ethical and Scientific Committees (Control no. No. Control: DE-BIOB-73 AC65, RG.BIOB-96 REV, and CI-BIOB-08-10-01 rev), with informed consent and according to Declaration of Helsinki principles. Primary patient tumors were subcutaneously implanted in immunocompromised female 6- to 8-week-old NU-Foxn1nu nude mice (Envigo, Barcelona, Spain) and subsequently passage in vivo to establish PDX PDAC1, PDAC2 and PDAC4. Primary PDX-derived in vitro cultures were established as previously detailed. Briefly, xenografts were minced, enzymatically digested with collagenase (Stem Cell Technologies) for 60 min at 37 °C and after centrifugation for 5 min at 1800 rpm, the cell pellets were resuspended and cultured in RPMI (1:1; #61870-010; Gibco, Waltham, MA, USA) supplemented with 10% FBS (Invitrogen, Waltham, MA, USA), Pen/Strep (1:100; #1500-063; Gibco, Waltham, MA, USA), and Fungizone (1:250; #15290-018; Gibco, Waltham, MA, USA). Primary cultures were tested for Mycoplasma at least every 4 weeks.
as §5
Murine embryonic stem cells (mESCs) were plated at 20,000 cells per well in gelatinized 96 well plates. Compounds from the 640 compound ETP library were added by a Beckman FX 96 tip to achieve a final concentration of 5 µM in each well, and each compound was tested in duplicate. Cells were treated for a total of 30 h prior to assessing cell viability using CellTiter 96® AQueous One Solution Cell Proliferation Assay (MTS) assay according to manufacturer’s instructions (G3582, Promega, Madison, WI, USA). Dose response curves were carried out on mESCs under the same conditions using indicated compounds. To test the viability of CSCs, 10,000 PDAC cells were plated in spheroid conditions and immediately treated with indicated compounds and concentrations for the duration of the sphere formation assay. […]

O=C(Nc1cccc(OC(F)(F)F)c1)c1cnc2ccc(N3CCCC4(CCNCC4)C3)nn12 [Cpd 3]
EC50 [1]: 1500 nM | viability at 30 h, 5 µM [2]: 9%

C#CCCC1(CCN2CCC(CNc3ccc4ncc(C(=O)Nc5cccc(OC(F)(F)F)c5)n4n3)CC2)N=N1 [Cpd 25, 6-({1-[2-(3-But-3-ynyl-3H-diazirin-3-yl)-ethyl]-piperidin-4-ylmethyl}-amino)-imidazo [1,2-b]pyridazine-3-carboxylic acid (3-trifluoromethoxy-phenyl)-amide]
EC50 ([3]; Homo sapiens): 2620 nM

C#CCCC1(CC(=O)N2CCC(CNc3ccc4ncc(C(=O)Nc5cccc(OC(F)(F)F)c5)n4n3)CC2)N=N1 [Cpd 26, 6-({1-[2-(3-But-3-ynyl-3H-diazirin-3-yl)-acetyl]-piperidin-4-ylmethyl}-amino)-imidazo[1,2-b]pyridazine-3-carboxylic acid (3-trifluoromethoxy-phenyl)-amide]
effect on PDAC4 CSC viability [3]: inactive

Nc1ccn([C@@H]2O[C@H](CO)[C@@H](O)C2(F)F)c(=O)n1 [gemcitabine]
tumor volume versus control ([4]; PDAC1 PDX, GEM 125 mg/kg i.p. biweekly, SIR 30 mg/kg oral gavage, 23 days): significantly reduced | autofluorescent-positive cells in tumors ([4]; PDAC1 tumors, day 23, flow cytometry): marked increase | tumor volume versus control [5]: significantly reduced | sphere-forming capacity [6]: increased | sphere-forming capacity [7]: did not affect sphere formation | CSC freq ([8]; PDAC3, Extreme Limiting Dilution Analysis, listed as GEM): 1/102 | Tumors/n (2nd generation) ([8]; PDAC3, no. cells 10^2): 5/8 | Tumors/n (2nd generation) ([8]; PDAC3, no. cells 10^3): 8/8 | CSC freq ([9]; PDAC1, Extreme Limiting Dilution Analysis, listed as GEM): 1/272 | Tumors/n (2nd generation) ([9]; PDAC1, no. cells 10^2): 5/8 | Tumors/n (2nd generation) ([9]; PDAC1, no. cells 10^3): 7/8 | tumor formation / growth from pre-treated cells [10]: gave rise to larger tumors

OC(c1cc(C(F)(F)F)nc2c(C(F)(F)F)cccc12)C1CCCCN1 (centres unmarked) [mefloquine, reference compound]
EC50 [11]: 7600 nM
